Several values for one entry are separate records, joined by “and”; a condition that tells them apart may be missing. Identical values can stand only once.
Legend:
rat BCAT cytosolic form = biological target: T1, rat BCAT cytosolic form (Rattus norvegicus, UniProt P54690); assay: In vitro coupled enzyme assay (glutamate dehydrogenase, NADH formation), rat BCATc; type: biochemical; details: recombinant rat BCATc, 37° C., 25 mM phosphate buffer pH 7.8; several values in a cell = repeat determinations; read-out: RrBCATc
T1 construct: made in house; host or cells: E. coli BL21(DE3)
T1 sequence (P54690 1-411): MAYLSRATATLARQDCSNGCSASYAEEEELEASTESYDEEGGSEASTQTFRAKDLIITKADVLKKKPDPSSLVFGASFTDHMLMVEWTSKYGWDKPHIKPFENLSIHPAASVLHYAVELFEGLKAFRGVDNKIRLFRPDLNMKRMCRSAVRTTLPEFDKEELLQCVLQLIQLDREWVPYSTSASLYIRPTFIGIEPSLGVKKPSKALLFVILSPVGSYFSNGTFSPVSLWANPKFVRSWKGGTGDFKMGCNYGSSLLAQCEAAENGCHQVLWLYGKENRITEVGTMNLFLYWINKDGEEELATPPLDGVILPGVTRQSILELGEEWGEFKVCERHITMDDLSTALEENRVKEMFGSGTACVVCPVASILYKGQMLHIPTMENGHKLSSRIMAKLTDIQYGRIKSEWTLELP
Outline: (§1)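 At 37 °C in 25 mM phosphate pH 7.8 with 2 mM DTT, 1.25 μg His-tag-purified E. coli-expressed BCAT transaminated 750 μM L-leucine with 500 μM α-ketoglutarate and 10 μM PLP. Glutamate was coupled via glutamate dehydrogenase (1 mM NAD+, 4 mM ADP) to NADH formation at 340 nm. Compounds were added in DMSO up to 5% v/v.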

[1] = biological target: T2, human Branched Chain Amino Acid Aminotransferase cytosolic form (hBCATc) (Homo sapiens, UniProt P54687); assay: In vitro coupled enzyme assay (glutamate dehydrogenase, NADH formation), human BCATc; type: biochemical; details: recombinant human BCATc, 37° C., 25 mM phosphate buffer pH 7.8; several values in a cell = repeat determinations; read-out: RhBCATc
T2 construct: made in house; host or cells: E. coli BL21(DE3)
T2 sequence (P54687 1-386): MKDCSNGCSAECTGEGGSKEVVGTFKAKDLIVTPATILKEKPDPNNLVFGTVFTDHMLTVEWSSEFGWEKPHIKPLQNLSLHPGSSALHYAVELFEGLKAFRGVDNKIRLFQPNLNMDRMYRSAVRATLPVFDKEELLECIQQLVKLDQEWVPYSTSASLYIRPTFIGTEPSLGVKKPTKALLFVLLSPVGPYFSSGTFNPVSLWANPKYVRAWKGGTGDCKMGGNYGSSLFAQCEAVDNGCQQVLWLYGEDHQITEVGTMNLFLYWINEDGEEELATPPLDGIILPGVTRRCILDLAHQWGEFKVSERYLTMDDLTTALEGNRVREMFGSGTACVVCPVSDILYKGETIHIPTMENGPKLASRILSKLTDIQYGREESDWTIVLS
Outline: as §1

Compound | IC50 (rat BCAT cytosolic form) | IC50 [1] | melting point [°C]
O=C(NNS(=O)(=O)c1ccc(F)cc1)c1cc2cc(Cl)ccc2o1 [Example 22, 2-Benzofurancarboxylic acid, 5-chloro-2-[(4-fluorophenyl)]sulfonyl hydrazide] | 4.1 µM | 24.6 µM | 229.4 to 230.5
COc1cccc2cc(C(=O)NNS(=O)(=O)c3ccc(F)cc3)oc12 [Example 23, 2-Benzofurancarboxylic acid, 7-methoxy-, 2-[(4-fluoro-phenyl)sulfonyl]hydrazide] | 5.4 µM | 17.8 µM | 182.7 to 183.3
O=C(NNS(=O)(=O)c1ccc(F)cc1)c1ccc2oc3ccccc3c2c1 [Example 24, 2-Dibenzofurancarboxylic acid 2-[(4-fluorophenyl)sulfonyl]hydrazide] | 1.2 µM | 24 µM | 206.3 to 207
O=C(NNS(=O)(=O)c1ccc(F)cc1Cl)c1ccc2oc3ccccc3c2c1 [Example 25, 2-Dibenzofurancarboxylic acid 2-[(2-chloro-4-fluorophenyl)sulfonyl]hydrazide] | 1.8 µM | 21.9 µM | 227.5 to 227.8
N#Cc1cccc(S(=O)(=O)NNC(=O)c2ccc3oc4ccccc4c3c2)c1 [Example 26, 2-Dibenzofurancarboxylic acid 2-[(3-cyanophenyl)sulfonyl]hydrazide] | 15.2 µM and 6.9 µM | 138 µM | 234 to 236
N#Cc1cccc(S(=O)(=O)NNC(=O)c2cc3cc(Cl)ccc3o2)c1 [Example 27, 2-Benzofurancarboxylic acid, 5-chloro-, 2-[(3-cyanophenyl)sulfonyl]hydrazide] | 45.2 µM | 171 µM | 208.5 to 210
O=C(NNS(=O)(=O)c1ccc(F)cc1Cl)c1cc2cc(Cl)ccc2o1 [Example 30, 2-Benzofurancarboxylic acid, 5-chloro-, 2-[(2-chloro-4-fluorophenyl)sulfonyl]-hydrazide] | 5.7 µM | 25 µM | 204.6 to 206.2
O=C(NNS(=O)(=O)c1cc(Cl)cc(Cl)c1)c1cc2cc(Cl)ccc2o1 [Example 31, 2-Benzofurancarboxylic acid, 5-chloro-, 2-[(3,5-dichlorophenyl)sulfonyl]-hydrazide] | 0.81 µM | 2.6 µM and 4.3 µM | 242.5 to 243.3
O=C(NNS(=O)(=O)c1cc(C(F)(F)F)cc(C(F)(F)F)c1)c1ccc2oc3ccccc3c2c1 [Example 32, 2-Dibenzofurancarboxylic acid, 2-[[3,5-bis(trifluoromethyl)phenyl]sulfonyl]-hydrazide] | > 100 µM | > 100 µM | 244.7 to 245.5
O=C(NNS(=O)(=O)c1cccc(F)c1)c1ccc2oc3ccccc3c2c1 [Example 35, 2-Dibenzofurancarboxylic acid 2-[(3-fluorophenyl)sulfonyl]hydrazide] | 0.31 µM | 3.57 µM | 222.6 to 223.3
Cc1ccc(F)cc1S(=O)(=O)NNC(=O)c1ccc2oc3ccccc3c2c1 [Example 36, 2-Dibenzofurancarboxylic acid 2-[(5-fluoro-2-methylphenyl)sulfonyl]hydrazide] | 1.1 µM | 17.5 µM and 18.2 µM | 210.1 to 210.5
O=C(NNS(=O)(=O)c1ccc(F)c(F)c1)c1ccc2oc3ccccc3c2c1 [Example 37, 2-Dibenzofurancarboxylic acid 2-[(3,4-difluorophenyl)sulfonyl]hydrazide] | 3.5 µM | 41.3 µM | 210.1 to 210.5
O=C(NNS(=O)(=O)c1ccc(F)c(Cl)c1)c1ccc2oc3ccccc3c2c1 [Example 38, 2-Dibenzofurancarboxylic acid 2-[(3-chloro-4-fluorophenyl)sulfonyl]hydrazide] | 0.77 µM and 0.61 µM | 29.9 µM | 210.8 to 211.6
COc1cccc(S(=O)(=O)NNC(=O)c2ccc3oc4ccccc4c3c2)c1 [Example 39, 2-Dibenzofurancarboxylic acid 2-[(3-methoxyphenyl)sulfonyl]hydrazide] | 0.21 µM | 2.29 µM | 199.5 to 200.5
O=C(NNS(=O)(=O)c1cccc(F)c1)c1cc2cc(Cl)ccc2o1 [Example 40, 2-Benzofurancarboxylic acid, 5-chloro-2-[(3-fluorophenyl)sulfonyl]hydrazide] | 1 µM | 4.86 µM and 8.8 µM | 174.4 to 174.7
O=C(NNS(=O)(=O)c1ccc(F)c(F)c1)c1cc2cc(Cl)ccc2o1 [Example 41, 2-Benzofurancarboxylic acid, 5-chloro-2-[(3,4-difluorophenyl)sulfonyl]hydrazide] | 14.5 µM | 28.8 µM | 193.8 to 195
O=C(NNS(=O)(=O)c1ccccc1Cl)c1cc2cc(Cl)ccc2o1 [Example 42, 2-Benzofurancarboxylic acid, 5-chloro-2-[(2-chlorophenyl)sulfonyl]hydrazide] | 1.3 µM | 5.3 µM and 10.4 µM | 200.3 to 200.5
O=C(NNS(=O)(=O)c1cccc(Cl)c1)c1cc2cc(Cl)ccc2o1 [Example 43, 2-Benzofurancarboxylic acid, 5-chloro-2-[(3-chlorophenyl)sulfonyl]hydrazide] | 0.47 µM | 1.8 µM | 202.9 to 205.2
O=C(NNS(=O)(=O)c1cccc(Br)c1)c1cc2cc(Cl)ccc2o1 [Example 45, 2-Benzofurancarboxylic acid, 5-chloro-2-[(3-bromophenyl)sulfonyl]hydrazide] | 0.21 µM | 2.29 µM | 218.1 to 220
Cc1cccc(S(=O)(=O)NNC(=O)c2cc3cc(Cl)ccc3o2)c1 [Example 47, 2-Benzofurancarboxylic acid, 5-chloro-2-[(3-methylphenyl)sulfonyl]hydrazide] | 0.15 µM and 0.2 µM | 0.84 µM and 1.47 µM | 201.2 to 201.6
COc1cccc(S(=O)(=O)NNC(=O)c2cc3cc(Cl)ccc3o2)c1 [Example 48, 2-Benzofurancarboxylic acid, 5-chloro-2-[(3-methoxyphenyl)sulfonyl]hydrazide] | 0.91 µM | 4.21 µM and 7.6 µM | 204.3 to 204.6
Cc1c(Cl)cccc1S(=O)(=O)NNC(=O)c1cc2cc(Cl)ccc2o1 [Example 49, 2-Benzofurancarboxylic acid, 5-chloro-2-[(3-chloro-2-methylphenyl)sulfonyl]-hydrazide] | 3.1 µM and 4 µM | 1.75 µM and 3.6 µM | 198.2 to 198.5
Cc1ccc(F)cc1S(=O)(=O)NNC(=O)c1cc2cc(Cl)ccc2o1 [Example 50, 2-Benzofurancarboxylic acid, 5-chloro-2-[(5-fluoro-2-methylphenyl)sulfonyl]-hydrazide] | 1.3 µM | 5.18 µM and 9.1 µM | 209.6 to 211.2
O=C(NNS(=O)(=O)c1ccccc1OC(F)(F)F)c1cc2cc(Cl)ccc2o1 [Example 52, 2-Benzofurancarboxylic acid, 5-chloro-2-[[2-(trifluoromethoxy)phenyl]sulfonyl]-hydrazide] | 0.3 µM | 2.19 µM | 218.2 to 219.8
COc1ccc2oc(C(=O)NNS(=O)(=O)c3ccccc3)c(OC)c2c1 [Example 58, 2-Benzofurancarboxylic acid, 3,5-dimethoxy-, 2-(phenylsulfonyl)hydrazide] | 0.22 µM | 3.57 µM | 172.2 to 173.8
COc1ccc2c(OC)c(C(=O)NNS(=O)(=O)c3ccccc3)oc2c1 [Example 59, 2-Benzofurancarboxylic acid, 3,6-dimethoxy-, 2-(phenylsulfonyl)hydrazide] | 0.12 µM | 3.42 µM | 174.8 to 175.2
CCOc1c(C(=O)NNS(=O)(=O)c2ccccc2)oc2ccc(-c3ccccc3)cc12 [Example 66, 2-Benzofurancarboxylic acid, 3-ethoxy-5-phenyl-, 2-(phenylsulfonyl)hydrazide] | 0.15 µM | 1.38 µM | 184.3 to 184.6
O=C(NNS(=O)(=O)c1ccccc1)c1cc2cc(Cl)cc(Cl)c2o1 [Example 69, 2-Benzofurancarboxylic acid, 5,7-dichloro 2-(phenylsulfonyl)sulfonyl hydrazide] | 0.05 µM | 3.86 µM | 216.4 to 218.1
